Measured values from article PMC5218480 (PLoS ONE, 2017).

System: MV-4-11 cells
Assay: Gene expression microarray analysis (Affymetrix PrimeView) and GSEA
Assay type: cell-based, human
Design: RFU PODN (11730768_x_at) / Fold change /veh PODN (11730768_x_at) / RFU LINC00158 (11744669_a_at) / Fold change /veh LINC00158 (11744669_a_at) / RFU DUSP10 (11751237_a_at) / Fold change /veh DUSP10 (11751237_a_at) / RFU ID3 (11757404_x_at) / Fold change /veh ID3 (11757404_x_at) / RFU PLEKHG5 (11737974_s_at) / Fold change /veh PLEKHG5 (11737974_s_at) / RFU LRRC4B (11730491_at) / Fold change /veh LRRC4B (11730491_at) / RFU GIMAP4 (11747438_a_at) / Fold change /veh GIMAP4 (11747438_a_at) / RFU KRT8 (11758183_x_at) / Fold change /veh KRT8 (11758183_x_at) / RFU CNN1 (11734310_a_at) / Fold change /veh CNN1 (11734310_a_at) / RFU VPS37D (11726825_at) / Fold change /veh VPS37D (11726825_at) / RFU C10orf10 (11716522_x_at) / Fold change /veh C10orf10 (11716522_x_at) / RFU KIR2DL2 /// KIR2DL4 /// KIR2DL5A /// KIR2DL5B /// KIR2DS1 /// KIR2DS2 /// KIR2DS3 /// KIR2DS4 /// KIR3DL3 /// KIR3DL3 /// KIR3DS1 (11738374_at) / Fold change /veh KIR2DL2 /// KIR2DL4 /// KIR2DL5A /// KIR2DL5B /// KIR2DS1 /// KIR2DS2 /// KIR2DS3 /// KIR2DS4 /// KIR3DL3 /// KIR3DL3 /// KIR3DS1 (11738374_at) / RFU C1QL1 (11718748_at) / Fold change /veh C1QL1 (11718748_at) / RFU TMPRSS4 (11747572_a_at) / Fold change /veh TMPRSS4 (11747572_a_at) / RFU HAMP (11756126_x_at) / Fold change /veh HAMP (11756126_x_at) / RFU RNFT2 (11725882_a_at) / Fold change /veh RNFT2 (11725882_a_at) / RFU NR4A2 (11747474_a_at) / Fold change /veh NR4A2 (11747474_a_at) / RFU ABCC12 (11746883_a_at) / Fold change /veh ABCC12 (11746883_a_at) / RFU TMEM136 (11760407_x_at) / Fold change /veh TMEM136 (11760407_x_at) / RFU CLDN22 /// WWC2 (11732394_at) / Fold change /veh CLDN22 /// WWC2 (11732394_at) / RFU HLA-DPB1 (11760878_x_at) / Fold change /veh HLA-DPB1 (11760878_x_at) / RFU SPINT1 (11716480_a_at) / Fold change /veh SPINT1 (11716480_a_at) / RFU GAP43 (11754022_s_at) / Fold change /veh GAP43 (11754022_s_at) / RFU A4GNT (11735810_at) / Fold change /veh A4GNT (11735810_at) / RFU PRB3 (11715151_x_at) / Fold change /veh PRB3 (11715151_x_at) / RFU TUBB4B (11761932_at) / Fold change /veh TUBB4B (11761932_at) / RFU CAPN14 (11732068_a_at) / Fold change /veh CAPN14 (11732068_a_at) / RFU TMCC2 (11721928_a_at) / Fold change /veh TMCC2 (11721928_a_at) / RFU IRGQ (11745062_a_at) / Fold change /veh IRGQ (11745062_a_at) / RFU FAM174B (11720279_a_at) / Fold change /veh FAM174B (11720279_a_at) / RFU TMPRSS4 (11748680_a_at) / Fold change /veh TMPRSS4 (11748680_a_at) / RFU FAM212B (11763350_a_at) / Fold change /veh FAM212B (11763350_a_at) / RFU PLEKHG5 (11743358_a_at) / Fold change /veh PLEKHG5 (11743358_a_at) / RFU ZSCAN30 (11745921_a_at) / Fold change /veh ZSCAN30 (11745921_a_at) / RFU CMKLR1 (11741424_a_at) / Fold change /veh CMKLR1 (11741424_a_at) / RFU LOC101060620 /// MAPK8IP1 (11723275_at) / Fold change /veh LOC101060620 /// MAPK8IP1 (11723275_at) / RFU SPTSSB (11747773_x_at) / Fold change /veh SPTSSB (11747773_x_at) / RFU PRSS12 (11739890_at) / Fold change /veh PRSS12 (11739890_at) / RFU BIN1 (11741810_x_at) / Fold change /veh BIN1 (11741810_x_at) / RFU WNT11 (11732464_a_at) / Fold change /veh WNT11 (11732464_a_at) / RFU C10orf10 (11716521_a_at) / Fold change /veh C10orf10 (11716521_a_at) / RFU C5orf56 (11738089_at) / Fold change /veh C5orf56 (11738089_at) / RFU CYB561 (11721691_x_at) / Fold change /veh CYB561 (11721691_x_at) / RFU ANKRD19P (11752326_a_at) / Fold change /veh ANKRD19P (11752326_a_at) / RFU OR2T12 /// OR2T33 /// OR2T8 (11738714_s_at) / Fold change /veh OR2T12 /// OR2T33 /// OR2T8 (11738714_s_at) / RFU VCAN (11748164_a_at) / Fold change /veh VCAN (11748164_a_at) / RFU JSRP1 (11732532_at) / Fold change /veh JSRP1 (11732532_at) / RFU KRTAP10-11 (11738290_x_at) / Fold change /veh KRTAP10-11 (11738290_x_at) / RFU MYO3A (11730013_a_at) / Fold change /veh MYO3A (11730013_a_at) / RFU EBF3 (11725865_a_at) / Fold change /veh EBF3 (11725865_a_at) / RFU CAMK2N1 (11719241_x_at) / Fold change /veh CAMK2N1 (11719241_x_at) / RFU C5orf56 (11738088_a_at) / Fold change /veh C5orf56 (11738088_a_at) / RFU OLFML3 (11715873_a_at) / Fold change /veh OLFML3 (11715873_a_at) / RFU LOC100653217 /// NTM (11731650_a_at) / Fold change /veh LOC100653217 /// NTM (11731650_a_at) / RFU MAPK11 (11762145_a_at) / Fold change /veh MAPK11 (11762145_a_at) / RFU FIZ1 (11724087_x_at) / Fold change /veh FIZ1 (11724087_x_at) / RFU OASL (11726364_x_at) / Fold change /veh OASL (11726364_x_at) / RFU SOX15 (11748057_x_at) / Fold change /veh SOX15 (11748057_x_at) / RFU CD79A (11719716_a_at) / Fold change /veh CD79A (11719716_a_at) / RFU HIST1H1D (11736915_at) / Fold change /veh HIST1H1D (11736915_at) / RFU CASKIN2 (11723855_a_at) / Fold change /veh CASKIN2 (11723855_a_at) / RFU LOC730098 (11760151_x_at) / Fold change /veh LOC730098 (11760151_x_at) / RFU OR4N2 (11742367_at) / Fold change /veh OR4N2 (11742367_at) / RFU PRRT2 (11749266_a_at) / Fold change /veh PRRT2 (11749266_a_at) / RFU SNX32 (11753110_a_at) / Fold change /veh SNX32 (11753110_a_at) / RFU CDHR5 (11726645_a_at) / Fold change /veh CDHR5 (11726645_a_at) / RFU RCAN1 (11760418_a_at) / Fold change /veh RCAN1 (11760418_a_at) / RFU FAM167A (11723789_a_at) / Fold change /veh FAM167A (11723789_a_at) / RFU FAM26E (11764081_at) / Fold change /veh FAM26E (11764081_at) / RFU ISYNA1 (11749810_s_at) / Fold change /veh ISYNA1 (11749810_s_at) / RFU ACY1 (11761880_at) / Fold change /veh ACY1 (11761880_at) / RFU 11764098_at / Fold change /veh 11764098_at / RFU SAMD14 (11745864_x_at) / Fold change /veh SAMD14 (11745864_x_at) / RFU NPB (11741838_a_at) / Fold change /veh NPB (11741838_a_at) / RFU TMPRSS6 (11731388_a_at) / Fold change /veh TMPRSS6 (11731388_a_at) / RFU KRTAP10-2 (11738614_at) / Fold change /veh KRTAP10-2 (11738614_at) / RFU ARHGAP8 /// PRR5-ARHGAP8 (11727945_x_at) / Fold change /veh ARHGAP8 /// PRR5-ARHGAP8 (11727945_x_at) / RFU KRTAP5-7 /// NADSYN1 (11734609_at) / Fold change /veh KRTAP5-7 /// NADSYN1 (11734609_at) / RFU RASL12 (11751679_a_at) / Fold change /veh RASL12 (11751679_a_at) / RFU CDKN2B (11736163_a_at) / Fold change /veh CDKN2B (11736163_a_at) / RFU PRF1 (11729649_at) / Fold change /veh PRF1 (11729649_at) / RFU, ZNF638 /// ZNF638-IT1 / Fold change vs veh, ZNF638 /// ZNF638-IT1 / RFU, PANK3 / Fold change vs veh, PANK3 / RFU, SH3YL1 / Fold change vs veh, SH3YL1 / RFU, ZEB2 / Fold change vs veh, ZEB2 / RFU, NRIP1 / Fold change vs veh, NRIP1 / RFU, PTTG1IP / Fold change vs veh, PTTG1IP / RFU, CAPN2 / Fold change vs veh, CAPN2 / RFU, MED14 / Fold change vs veh, MED14 / RFU, SNORA58 / Fold change vs veh, SNORA58 / RFU, C1orf63 / Fold change vs veh, C1orf63 / RFU, LRRFIP1 / Fold change vs veh, LRRFIP1 / RFU, NDUFAF7 / Fold change vs veh, NDUFAF7 / RFU, SLC12A2 / Fold change vs veh, SLC12A2 / RFU, IBTK / Fold change vs veh, IBTK / RFU, ESF1 / Fold change vs veh, ESF1 / Fold change vs veh, TMEM50B / RFU, TAOK1 / Fold change vs veh, TAOK1 / RFU, ACBD3 / Fold change vs veh, ACBD3 / RFU, TMA16 / Fold change vs veh, TMA16 / RFU, RWDD3 / Fold change vs veh, RWDD3 / RFU, BCAT1 / Fold change vs veh, BCAT1 / RFU, EDEM3 / Fold change vs veh, EDEM3 / RFU, TMEM33 / Fold change vs veh, TMEM33 / RFU, WDR75 / Fold change vs veh, WDR75 / RFU, AHCTF1 / Fold change vs veh, AHCTF1 / RFU, TFRC / Fold change vs veh, TFRC / RFU, ZDHHC17 / Fold change vs veh, ZDHHC17 / RFU, NOM1 / Fold change vs veh, NOM1 / RFU, ARL8B / Fold change vs veh, ARL8B / RFU, ZBTB11 / Fold change vs veh, ZBTB11 / RFU, TAMM41 / Fold change vs veh, TAMM41 / RFU, KIAA1704 /// LOC100996395 / Fold change vs veh, KIAA1704 /// LOC100996395 / RFU, ING1 / Fold change vs veh, ING1 / RFU, TRMT61B / Fold change vs veh, TRMT61B / RFU, FUBP3 / Fold change vs veh, FUBP3 / RFU, TP53 / Fold change vs veh, TP53 / RFU, TNKS2 / Fold change vs veh, TNKS2 / RFU, ZFP14 / Fold change vs veh, ZFP14 / RFU, ACTR2 / Fold change vs veh, ACTR2 / RFU, PPP3R1 / Fold change vs veh, PPP3R1 / RFU, PIK3R1 / Fold change vs veh, PIK3R1 / RFU, HNRNPA1 / Fold change vs veh, HNRNPA1 / RFU, RNF170 / Fold change vs veh, RNF170 / RFU, ZNF28 / Fold change vs veh, ZNF28 / RFU, RNGTT / Fold change vs veh, RNGTT / RFU, OGT / Fold change vs veh, OGT / RFU, BRD1 / Fold change vs veh, BRD1 / RFU, MARS / Fold change vs veh, MARS / RFU, ZNF655 / Fold change vs veh, ZNF655 / RFU, FAHD1 / Fold change vs veh, FAHD1 / RFU, BDP1 / Fold change vs veh, BDP1 / RFU, LRRCC1 / Fold change vs veh, LRRCC1 / RFU, ARID1A / Fold change vs veh, ARID1A / RFU, ZNF146 / Fold change vs veh, ZNF146 / RFU, ZNF330 / Fold change vs veh, ZNF330 / RFU, GPN3 / Fold change vs veh, GPN3 / RFU, C9orf123 / Fold change vs veh, C9orf123 / RFU, N4BP2L2 / Fold change vs veh, N4BP2L2 / RFU, ARFIP1 / Fold change vs veh, ARFIP1 / RFU, FAM179B / Fold change vs veh, FAM179B / RFU, BCL10 / Fold change vs veh, BCL10 / RFU, UHRF1BP1L / Fold change vs veh, UHRF1BP1L / RFU, BET1 / Fold change vs veh, BET1 / RFU, CNOT2 / Fold change vs veh, CNOT2 / RFU, ZNF268 / Fold change vs veh, ZNF268 / Fold change vs veh, ZNF507 / RFU, DGCR2 / Fold change vs veh, DGCR2 / RFU, WDSUB1 / Fold change vs veh, WDSUB1 / Fold change vs veh, HSP90B1 /// MIR3652 / RFU, ADSS / Fold change vs veh, ADSS / RFU, GK / Fold change vs veh, GK / RFU, ZNF148 / Fold change vs veh, ZNF148 / RFU, TAF9 / Fold change vs veh, TAF9 / RFU, SLC1A5 / Fold change vs veh, SLC1A5 / RFU, SLMO2 / Fold change vs veh, SLMO2 / RFU, ABCC4 / Fold change vs veh, ABCC4 / RFU, LOC101060439 /// RAP1B / Fold change vs veh, LOC101060439 /// RAP1B / RFU, RFX7 / Fold change vs veh, RFX7 / RFU, GTPBP10 / Fold change vs veh, GTPBP10 / RFU, CNEP1R1 / Fold change vs veh, CNEP1R1 / RFU, BIVM-ERCC5 /// ERCC5 / Fold change vs veh, BIVM-ERCC5 /// ERCC5 / RFU, ILF3 / Fold change vs veh, ILF3 / RFU 11762660_at / Fold change /veh 11762660_at / RFU VCAN (11757783_s_at) / Fold change /veh VCAN (11757783_s_at) / RFU DDX43 (11728927_at) / Fold change /veh DDX43 (11728927_at) / RFU KRT8 (11758188_x_at) / Fold change /veh KRT8 (11758188_x_at) / RFU NKD1 (11759106_at) / Fold change /veh NKD1 (11759106_at) / RFU SRD5A1 (11742802_a_at) / Fold change /veh SRD5A1 (11742802_a_at) / RFU TPSAB1 /// TPSB2 (11721975_s_at) / Fold change /veh TPSAB1 /// TPSB2 (11721975_s_at) / RFU GSTM3 (11746129_a_at) / Fold change /veh GSTM3 (11746129_a_at) / RFU IL23R (11737362_x_at) / Fold change /veh IL23R (11737362_x_at) / RFU TMEM51 (11727254_a_at) / Fold change /veh TMEM51 (11727254_a_at) / RFU PIWIL2 (11732686_x_at) / Fold change /veh PIWIL2 (11732686_x_at) / RFU ORM1 (11744905_x_at) / Fold change /veh ORM1 (11744905_x_at) / RFU CCDC152 (11743942_at) / Fold change /veh CCDC152 (11743942_at) / RFU ECM1 (11717891_a_at) / Fold change /veh ECM1 (11717891_a_at) / RFU IL23R (11748794_a_at) / Fold change /veh IL23R (11748794_a_at) / RFU TNFAIP8L3 (11732012_x_at) / Fold change /veh TNFAIP8L3 (11732012_x_at) / RFU MBOAT4 (11741988_at) / Fold change /veh MBOAT4 (11741988_at) / RFU 11764193_at / Fold change /veh 11764193_at / RFU TMEM53 (11763286_at) / Fold change /veh TMEM53 (11763286_at) / RFU MAGEB2 (11727129_at) / Fold change /veh MAGEB2 (11727129_at) / RFU TMEM200A (11744735_a_at) / Fold change /veh TMEM200A (11744735_a_at) / RFU CCDC152 (11751479_a_at) / Fold change /veh CCDC152 (11751479_a_at) / RFU FAM211A (11726209_a_at) / Fold change /veh FAM211A (11726209_a_at) / RFU RGS16 (11746705_a_at) / Fold change /veh RGS16 (11746705_a_at) / RFU VCAN (11755009_s_at) / Fold change /veh VCAN (11755009_s_at) / RFU RHOB (11743442_s_at) / Fold change /veh RHOB (11743442_s_at) / RFU RGS16 (11720943_a_at) / Fold change /veh RGS16 (11720943_a_at) / RFU RGS16 (11720944_at) / Fold change /veh RGS16 (11720944_at) / RFU, VPS4B / Fold change vs veh, VPS4B / RFU, CREB1 / Fold change vs veh, CREB1 / RFU, DNAJC13 / Fold change vs veh, DNAJC13 / RFU, GNAQ / Fold change vs veh, GNAQ / RFU, CDK5R1 / Fold change vs veh, CDK5R1 / RFU, ZRANB3 / Fold change vs veh, ZRANB3 / RFU, CUL4A / Fold change vs veh, CUL4A / RFU, CCNY / Fold change vs veh, CCNY / RFU, UFL1 / Fold change vs veh, UFL1 / RFU, COG3 / Fold change vs veh, COG3 / RFU, DIAPH2 / Fold change vs veh, DIAPH2 / RFU, SKA2 / Fold change vs veh, SKA2 / RFU, AFF3 / Fold change vs veh, AFF3 / RFU, LMF1 / Fold change vs veh, LMF1 / RFU, IPO11 / Fold change vs veh, IPO11 / RFU, DFFB / Fold change vs veh, DFFB / RFU, FOXP1 / Fold change vs veh, FOXP1 / RFU, CARD8 / Fold change vs veh, CARD8 / RFU, STRN3 / Fold change vs veh, STRN3 / RFU, ADK / Fold change vs veh, ADK / RFU, RASSF2 / Fold change vs veh, RASSF2 / RFU, WIPF1 / Fold change vs veh, WIPF1 / RFU, LARP1B / Fold change vs veh, LARP1B / RFU, RASA1 / Fold change vs veh, RASA1 / RFU, RB1 / Fold change vs veh, RB1 / RFU, PPFIA1 / Fold change vs veh, PPFIA1 / RFU, MAT2A / Fold change vs veh, MAT2A / RFU, CCT5 / Fold change vs veh, CCT5 / RFU, WDR92 / Fold change vs veh, WDR92 / RFU, CUX1 / Fold change vs veh, CUX1 / RFU, TTC7A / Fold change vs veh, TTC7A / RFU, TMEM135 / Fold change vs veh, TMEM135 / RFU, DEPTOR / Fold change vs veh, DEPTOR / RFU, CPM / Fold change vs veh, CPM / RFU, DNAJB6 / Fold change vs veh, DNAJB6 / RFU, CACNA2D3 / Fold change vs veh, CACNA2D3 / RFU, DTX4 / Fold change vs veh, DTX4 / RFU, TFCP2 / Fold change vs veh, TFCP2 / RFU, GMCL1 /// GMCL1P1 / Fold change vs veh, GMCL1 /// GMCL1P1 / RFU, AEBP2 / Fold change vs veh, AEBP2 / RFU, SNHG1 /// SNORD22 /// SNORD25 /// SNORD26 /// SNORD27 /// SNORD28 /// SNORD29 /// SNORD31 / Fold change vs veh, SNHG1 /// SNORD22 /// SNORD25 /// SNORD26 /// SNORD27 /// SNORD28 /// SNORD29 /// SNORD31 / Fold change (Aza/veh), C12orf56 (ProbeSet 11735607_a_at) / Fold change (ACY-1035/veh), C12orf56 (ProbeSet 11735607_a_at) / Fold change (Aza/veh), FGFR1OP (ProbeSet 11751329_s_at) / Fold change (ACY-1035/veh), FGFR1OP (ProbeSet 11751329_s_at) / Fold change (Aza/veh), VPS36 (ProbeSet 11739960_a_at) / Fold change (ACY-1035/veh), VPS36 (ProbeSet 11739960_a_at) / RFU SYPL1 (11715823_x_at) / Fold change /veh SYPL1 (11715823_x_at) / RFU IGFBP7 (11715501_s_at) / Fold change /veh IGFBP7 (11715501_s_at) / RFU REEP3 (11722064_at) / Fold change /veh REEP3 (11722064_at) / RFU IGLL1 (11728026_x_at) / Fold change /veh IGLL1 (11728026_x_at): dose or concentration left out as unconfirmed
Details: ProbeSet 11739106_a_at; LIST B

With `Nc1ccc(-c2cccs2)cc1NC(=O)c1ccc2c(c1)cc(C1CC1)n2CCN1CCOCC1` [ACY-1035] the “Fold change vs veh, TMEM33” value was 0.87.
